Experimental data as given in patent US7662574B2, “Use of a G protein-coupled receptor and its cognizant ligand in the identification of compounds that affect prolactin secretion” (Takeda Pharmaceutical Company Limited, priority 1999, dated 2010).

Legend:
rOT7T022L = biological target: T1, rOT7T022L (Rattus norvegicus, UniProt Q9EP86); assay: Site sensor (Cytosensor) acidification rate in rOT7T022L receptor-expressing CHO cells; assay type: cell-based; details: peptide exposed to cells for 7 minutes and 2 seconds; FIG. 8
T1 construct: expressed in transfected cells
Procedure: The rOT7T022L receptor-expressing CHO cells obtained in Example 7 (2) above were inoculated on capsules for site sensor in 2.7×10^5 cells/capsule. After incubation overnight, the site sensor was mounted to a workstation for the site sensor. A medium for assay (low buffered RMP11640 medium supplemented with 0.1% bovine serum albumin), which was set in the flow path of the site sensor, was supplied to the cells in a pump cycle of ON (80 seconds) and OFF (40 seconds). A rate of change in […] from 8 to 30 seconds after the pump stopped was calculated as an acidification rate. A change of the acidification rate with passage of time was monitored; when stable reading was obtained, the flow path was switched to expose each peptide to the cells for 7 minutes and 2 seconds. In the acidification rate of each well, the data for 3 cycles immediately before the peptide exposure was made 100% for standardization.

[1] = test system: pituitary hormone level in plasma; assay: Pituitary hormone level in plasma after administration into the third ventricle; assay type: in vivo, Wistar rats; details: for plasma prolactin level: vs PBS control
Procedure: The effect of the peptide shown by SEQ ID NO: 39 administered into the third ventricle on pituitary hormone level in plasma, was explored. Mature male Wistar rats (body weights at operation: about 290-350 g) were anesthetized with 50 mg/kg of pentobarbital, i.p., and each rat was immobilized in a rat brain stereotaxic apparatus. The incisor bar was set 3.3 mm lower from the interaural line. The skull was exposed, and using a dental drill a hole was made on the bone for implantation of a guide cannula.
In addition, an anchor screw was buried in one position around the hole. A stainless-steel guide cannula, AG-12 (0.4 mm inner diameter, 0.5 mm outer diameter, EICOM Co., Ltd.), was inserted in such a manner that its tip would be situated in the upper part of the third ventricle. Following the atlas of Paxinos and Watson (1986), the stereotaxic coordinates were set to AP: +7.2 mm (from the interaural line), L: 0.0 mm, and H: +2.0 mm (from the interaural line). The guide cannula was secured to the skull using instant adhesive, dental cement and an anchor screw. A stainless-steel dummy cannula, AD-12 (0.35 mm outer diameter, EICOM Co., Ltd.), was then passed through the guide cannula and locked in position with a cap nut (EICOM Co., Ltd.). After the operation the rats were housed in individual cages and kept for at least a week for postoperative recuperation before starting the experiment.
The operated rat was anesthetized with 50 mg/kg of pentobarbital, i.p., and immobilized in the dorsal position on a necropsy pad. A catheter (SP35, Natsume Seisakusho Co., Ltd.) was inserted into the right jugular vein. On the following day, 400 μl of blood was drawn through the jugular vein catheter. To prevent clotting, a syringe was filled beforehand with 20 μl of saline containing 200 U/ml of heparin. The cap nut and dummy cannula were removed from the rat skull and instead, a stainless steel microinjection cannula AMI13 (0.17 mm inner diameter, 0.35 mm outer diameter, EICOM Co., Ltd.) connected to a Teflon tube (50 cm long, 0.1 mm inner diameter, 0.4 mm outer diameter, EICOM Co., Ltd.) was inserted. The length of the microinjection cannula was adjusted beforehand so that its tip would be exposed from the guide cannula by 1 mm. One end of the Teflon tube was connected to a microsyringe pump and either PBS or the peptide shown by SEQ ID NO: 39 dissolved in PBS was injected, in a total volume of 10 μl, into the third ventricle at a flow rate of 5 μl/min. After a 1 minute standby time following the infusion, the microinjection cannula was disconnected and the dummy cannula was locked in position again with a cap nut. Immediately before the initiation of intraventricular administration and 10, 20, 30, 40, and 60 minutes after the initiation of administration, 400 μl aliquots of blood were collected via the cannula inserted into the jugular vein. Each blood sample collected was centrifuged (5,000 rpm, 10 min.) with a high-speed refrigerated microcentrifuge (MR-150, Tommy Seiko) and the supernatant (plasma) was recovered. The amount of prolactin in the plasma was determined by radioimmunoassay.
The results were shown in terms of a mean±S.E.M. To examine if there was a significant difference between the group administered with the peptide shown by SEQ ID NO: 39 dissolved in PBS and the control group administered with PBS alone, Student's t-test was used. According to the two-tailed test, the risk percentage of 5% or less was assumed to be statistically significant.

Human 0T7T022 receptor = biological target: T2, Human 0T7T022 receptor (Homo sapiens, UniProt Q9GZQ6); assay: Effect of pertussis toxin on cAMP production inhibiting activity in human 0T7T022 receptor-expressing CHO cells; assay type: cell-based; details: 0.1 μM peptide, 1 μM forskolin, 100 ng/ml pertussis toxin overnight; FIG. 15
T2 construct: expressed in transfected cells; host or cells: CHO cells
Procedure: Human 0T7T022 receptor-expressing CHO cells obtained in Example 21 were inoculated on a 24-well plate in a concentration of 1×10^5 cells/well. After culturing overnight, the medium was exchanged by a medium added with 100 ng/ml pertussis toxin (Sigma, Inc.) or with a control medium followed by further incubation overnight. The cells were rinsed with Hanks' buffer (HBSS) supplemented with 0.05% BSA and 0.2 mM IBMX and then preincubated at 37° C. for 30 minutes in the same buffer. Next, the cells were incubated at 37° C. for 30 minutes after the buffer was exchanged by Hanks' buffer alone (HBSS) supplemented with 0.05% BSA and 0.2 mM IBMX (black column), or by HBSS further added with 1 μM forskolin only (white column), or by HBSS added with 1 μM forskolin and 0.1 μM RFRP-1-12 (peptide having the 81 (Met) to 92 (Phe) amino acid sequence in SEQ ID NO: 1) (hatched column). After completion of the incubation, cAMP in the cells of each well was extracted and quantified according to the method of cAMP EIA Kit (Amersham, Inc.).

[2] = 10 nmols into the third ventricle

T1 sequence (Q9EP86 whole entry): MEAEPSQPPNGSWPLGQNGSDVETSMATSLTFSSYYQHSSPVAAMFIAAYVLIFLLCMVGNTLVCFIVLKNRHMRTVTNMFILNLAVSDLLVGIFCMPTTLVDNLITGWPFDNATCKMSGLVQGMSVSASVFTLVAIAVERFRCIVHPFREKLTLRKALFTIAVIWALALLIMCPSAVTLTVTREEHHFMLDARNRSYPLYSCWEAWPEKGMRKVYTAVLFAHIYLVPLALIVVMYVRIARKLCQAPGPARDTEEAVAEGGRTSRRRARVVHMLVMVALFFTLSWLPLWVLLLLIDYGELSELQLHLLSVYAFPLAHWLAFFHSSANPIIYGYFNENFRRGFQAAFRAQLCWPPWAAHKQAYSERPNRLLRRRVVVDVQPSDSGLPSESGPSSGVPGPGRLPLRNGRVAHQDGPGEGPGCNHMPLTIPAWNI
T2 sequence (Q9GZQ6 whole entry): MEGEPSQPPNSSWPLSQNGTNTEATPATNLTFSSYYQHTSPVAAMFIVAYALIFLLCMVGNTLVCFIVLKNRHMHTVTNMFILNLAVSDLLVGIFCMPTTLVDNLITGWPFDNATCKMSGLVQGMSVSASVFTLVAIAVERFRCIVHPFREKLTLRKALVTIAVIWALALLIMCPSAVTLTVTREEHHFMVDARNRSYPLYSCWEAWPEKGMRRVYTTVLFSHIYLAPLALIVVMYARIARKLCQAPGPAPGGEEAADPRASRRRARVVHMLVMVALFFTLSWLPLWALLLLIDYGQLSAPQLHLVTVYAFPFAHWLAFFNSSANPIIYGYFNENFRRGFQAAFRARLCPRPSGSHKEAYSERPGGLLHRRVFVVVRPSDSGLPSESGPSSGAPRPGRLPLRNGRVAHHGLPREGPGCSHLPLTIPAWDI

## CC(C)C[C@H](NC(=O)[C@H](CC(N)=O)NC(=O)[C@@H]1CCCN1C(=O)[C@@H](N)C(C)C)C(=O)N1CCC[C@H]1C(=O)N[C@@H](CCC(N)=O)C(=O)N[C@@H](CCCNC(=N)N)C(=O)N[C@@H](Cc1ccccc1)C(N)=O
rOT7T022L
  reaction of rOT7T022L-expressing CHO cells (acidification rate): strongly showed dose-dependent reaction

## H-MPHSFANLPLRF-NH2
rOT7T022L
  reaction of rOT7T022L-expressing CHO cells (acidification rate): strongly showed dose-dependent reaction
[1]; [2]
  level of ACTH in plasma: none showed any significant change
  level of GH in plasma: none showed any significant change
  level of LH in plasma: none showed any significant change
  level of TSH in plasma: none showed any significant change
[1]; 10 minutes after 10 nmols into the third ventricle
  plasma prolactin level: tended to increase
[1]; 20 minutes after 10 nmols into the third ventricle
  plasma prolactin level: significantly increased
[1]; 30 minutes after 10 nmols into the third ventricle
  plasma prolactin level: significantly increased
[1]; 40 minutes after 10 nmols into the third ventricle
  plasma prolactin level: significantly increased
[1]; 60 minutes after 10 nmols into the third ventricle
  plasma prolactin level: a significant difference was noted
Human 0T7T022 receptor
  cAMP production inhibiting activity in cells treated with pertussis toxin: lost
